Source: patent US6048712A, “Process for producing α-monoglucosyl hesperidin-rich substance” (Kabushiki Kaisha Hayashibara, priority 1997, dated 2000)

Key:
[1] = Dissolution and crystallization behaviour in lower alcohols; format: physicochemical; conditions: heated lower alcohols, then cooled below ambient temperature, for example 15-25° C.
[2] = cited from earlier work
[3] = cited from earlier work; remark: listed apart in the source

With `COc1ccc(C2CC(=O)c3c(O)cc(O[C@@H]4O[C@H](CO)[C@@H](O)[C@H](O)[C@H]4O)cc3O2)cc1O` (stereo partly drawn) [β-monoglucosyl hesperetin, 7-O-β-monoglucosyl hesperetin] as the molecule, how does the “solubility and crystallization in lower alcohols” value [1] read?
The value was “easily dissolves in lower alcohols and does not substantially crystallize even when the alcohols are cooled down to temperatures below ambient temperature”.

Which solubility in water ([2]; ambient temperature, about one gram in 50 1 water) does the source give for `COc1ccc([C@@H]2CC(=O)c3c(O)cc(O[C@@H]4O[C@H](CO[C@@H]5O[C@@H](C)[C@H](O)[C@@H](O)[C@H]5O)[C@@H](O)[C@H](O)[C@H]4O)cc3O2)cc1O` [Hesperidin] here?
Its solubility in water is “about 0.002 w/v %”.

What about the solubility in words ([2]; aqueous alkaline solutions, water and acids) of the same molecule?
The solubility in words was “dissolves in aqueous alkaline solutions but not substantially in water and acids”.

With `COc1ccc([C@@H]2CC(=O)c3c(O)cc(O)cc3O2)cc1O` [hesperetin, 3',5,7-trihydroxy-4'-metoxyflavanone] as the molecule, how does the water solubility [3] read?
The water solubility was “substantially water-insoluble”.

Which “solubility and crystallization in lower alcohols” value [1] does the source give for `COc1ccc(C2CC(=O)c3c(O)cc(O[C@@H]4O[C@H](CO[C@@H]5O[C@@H](C)[C@H](O)[C@@H](O)[C@H]5O)[C@@H](O[C@H]5O[C@H](CO)[C@@H](O)[C@H](O)[C@H]5O)[C@H](O)[C@H]4O)cc3O2)cc1O` (stereo partly drawn) [α-monoglucosyl hesperidin] here?
Its value is “easily dissolves in heated lower alcohols but easily crystallizes therein when the alcohols are cooled down to temperatures below ambient temperature”.
